We go through 3 compounds from ChEMBL document CHEMBL1268929, “Design, synthesis, and evaluation of an α-tocopherol analogue as a mitochondrial antioxidant” (2010).

Each structure is given as a SMILES string. Calls of active or inactive are those of the source. No cut-off for these calls is given here.

Experiment [1] deals with CCRF-CEM. The experiment can be described thus: Antioxidant activity against diethyl maleate-induced intracellular ROS accumulation in human CEM cells at 5 uM pretreated for 1 hr before diethyl maleate challenge measured after 30 mins by flow cytometry. It counts as functional. (In general: In flow cytometry, cells or beads pass a laser one at a time.)
The species entered for experiment [2] is Bos taurus. The experiment in a line: Antioxidant activity against AAPH-induced lipid peroxidation in bovine heart mitochondrial membrane at 50 uM by spectrofluorimetric analysis. It counts as functional. Conditions: Mitochondria.

Turning to `Cc1c(C)c2c(c(C)c1O)CC[C@@](C)(CCC[C@H](C)CCC[C@H](C)CCCC(C)C)O2` [ALPHA-TOCOPHEROL], the Activity in experiment [1] turned out to be 65%.
Same read-out and setting: under `Cc1nc2c(c(C)c1O)CCN2C` stands 75%.
Consider `Cc1nc2c(c(CC[C@](C)(O)CCC[C@H](C)CCC[C@H](C)CCCC(C)C)c1O)CCN2C`, for which the result in experiment [2] was Active. Moreover, the Activity in experiment [1] amounted to 2%.
